# Reference: patent US4268630A, “Microbiological production of ketones from C3 -C6 alkanes” (priority 1979, dated 1981)
# Columns and labels:
# [1] = tested on: Pseudomonas MS ATCC 25262; experiment: Oxidation of sec-alcohols to ketones by resting cell suspension; assay type: cell-based; details: methanol-grown, facultative
# Procedure: (§1) The pH of the nutrient medium was adjusted to 7.0 by the addition of acid or base and 50 ml. samples of the nutrient medium were charged into a plurality of 300 ml. shaker flasks. The shaker flasks were inoculated with an inoculating loop of cells from an agar plate containing homogeneous colonies of the microorganisms on the plate (the purity of the isolates was confirmed by microscopic examination). The isolates had been maintained on methanol (0.4% V/V) agar plates or on agar plates under an atmosphere of methane and air having a 1:1 V/V gas ratio which had been transferred every two weeks. For growth on methanol, the medium was supplemented with 0.4% methanol. For growth on methane, the gaseous phase of the inoculated flasks was replaced with a gas mixture comprised on methane and air having a ratio of 1:1 on a V/V basis. The inoculated flasks were sealed air-tight and were incubated on a rotary shaker of orbital radius 2.5 cm. at 250 rpm and at 30° C. for two days until turbidity in the medium had developed. The cells were harvested by centrifugation at 10,000×g. at 4° C. for 30 minutes. The cell pellet was washed twice with a 0.05 M phosphate buffer at a pH of 7.0 (containing 0.02 M MgCl2). The washed cells were then suspended in a 0.05 M phosphate buffer at pH 7.0.
# (§2) A 0.5 ml. sample of each washed cell suspension (2 mg. cells) was put into 10 ml. vials at 4° C. which were sealed with a rubber cap. The gaseous phase of the vials was removed with vacuum and then was replaced with a gas mixture of the substrate reactant (i.e., alkane or secondary alcohol) and oxygen at a 1:1 V/V ratio. (In the case of a liquid substrate, i.e., secondary alcohol, 10 μl of the substrate was put in the 10 ml. vials). […] Samples of product (1-3 μl) were withdrawn periodically with a microsyringe and the products were analyzed by gas chromatography (ionization flame detector column).
# (§3) The procedure in Example 1 was repeated except that a plurality of methanol-utilizing methylotrophic microorganisms were each aerobically grown in a methanol-containing nutrient medium instead of a methane-containing medium. The nutrients in the medium were the same as indicated in Example 1 except that 0.4% V/V methanol was used as the alcohol dehydrogenase inducer and as the major carbon and energy source for growth. The cells were harvested and washed as described in Example 1. The resting microbial cells of the induced methanol-grown methanol-utilizing methylotrophic microorganisms were then contacted with C3 -C6 secondary alcohols in a buffered solution by the procedure of Example 1.
# [2] = tested on: Pseudomonas sp. ATCC 21439; experiment: as above; assay type: cell-based; details: methanol-grown, obligate
# Procedure: as §1, §2, §3
# [3] = tested on: Methanomonas methylovora ATCC 21852; experiment: as above; assay type: cell-based
# Procedure: as §1, §2, §3
# (§4) The procedure in Example 1 was repeated except that the methylotrophic microorganisms were each aerobically grown in an alcohol dehydrogenase-inducing growth medium containing methylamine or methyl formate as the alcohol dehydrogenase enzyme inducer and growth substrate instead of methane. The nutrients in the medium were the same as indicated in Example 1 except that 0.4% V/V of the alcohol dehydrogenase-inducer growth substrate was used as the major carbon and energy source. The cells were harvested and washed as described in Example 1. The resting microbial cells were then contacted with C3 -C6 secondary alcohols in a buffered solution by the conversion procedure of Example 1.
# [4] = tested on: Pseudomonas sp. ATCC 21438; experiment: as above; assay type: cell-based
# Procedure: as §1, §2, §3, §4
# [5] = tested on: Candida utilis ATCC 26387; experiment: Oxidation of sec-alcohols to ketones by cell suspensions of yeasts; assay type: cell-based
# [6] = tested on: Pichia sp. NRRL-Y-11328; experiment: as above; assay type: cell-based
# [7] = tested on: Kloeckera sp. Strain A2 (NRRL Y-11,420); experiment: as above; assay type: cell-based
# [8] = tested on: cell-free soluble extract of Methylobacterium organophilum CRL 26 (NRRL B-11,222); experiment: Oxidation of secondary alcohols by cell-free soluble extract (NAD added); assay type: biochemical; details: soluble crude extract, grown on methanol
# Procedure: (§5) To prepare the cell-free secondary alcohol dehydrogenase (SADH) system, the washed cells were disrupted with a Wave Energy Ultrasonic Oscillator, Model W201 (Wave Energy System, Inc., Newtown, Pa.) and centrifuged at 20,000× g. for 30 minutes. […] The enzyme activity was measured with a fluorescence spectrophotometer (Perkin Elmer, Model MPF 44A) by following the formation of reduced NAD (EX 340 nm, Em 460 nm). The formation of reduced NAD was also followed with an absorption spectrophotometer at 340 nm. The assay system (3 ml.) contained: potassium phosphate buffer pH 7.0; 150 μmol.; NAD 1 μmol.; a given amount of enzyme preparation; and secondary alcohol 10 μmol. The reaction was started by the addition of substrate. One unit of enzyme activity represents the reduction of one μmole NAD per minute. Protein concentrations were determined by the Lowry method (J. Biol. Chem., 193: 255-275 (1951)).
# (§6) The experimental procedure for the tests reported in Table VIII were as follows: 1 mg protein of crude extract was added into a 0.5 ml. 0.05 M phosphate buffer (pH 7.0) in a 10-ml. vial. […] The reaction mixture was incubated at 30° C. on a water bath. A 3 μl sample was removed with a syringe at 15 min. of incubation and was assayed with g.l.c. Catalytic activity was also assayed by fluorescence spectrophotometry.
# [9] = tested on: cell-free soluble extract of Methylococcus capsulatus CRL M1 (NRRL B-11,219); experiment: as above; assay type: biochemical; details: soluble crude extract, grown on methanol
# Procedure: as §5, §6
# [10] = tested on: cell-free soluble extract of Methylosinus trichosporium OB3b (NRRL B-11,196); experiment: as above; assay type: biochemical; details: soluble crude extract, grown on methanol
# Procedure: as §5, §6
# [11] = tested on: cell-free soluble extract of Pseudomonas sp. CRL 75 (ATCC 21,439); experiment: as above; assay type: biochemical; details: soluble crude extract, grown on methanol
# Procedure: as §5, §6
# [12] = tested on: cell extracts of Hansenula polymorpha ATCC 26,012; experiment: NAD+-dependent oxidation of secondary alcohols by cell extracts of yeasts; assay type: biochemical; details: cell extracts, grown on methanol, NAD+; gas chromatography
# [13] = tested on: cell extracts of Torulopsis sp. strain A1 NRRL Y-11,419; experiment: as above; assay type: biochemical; details: cell extracts, grown on methanol, NAD+; gas chromatography
# [14] = tested on: secondary alcohol dehydrogenase; experiment: Activity of purified yeast-derived secondary alcohol dehydrogenase; assay type: biochemical, Pichia sp. NRRL Y-11,328; details: spectrophotometric
structure (smiles),measurement,setting,value
"CC(C)O [2-Propanol, 2-propanol]","Conversion Rates, sec-alcohol to methyl ketone",[1],0.80 μmoles/hr/mg protein
same,"Conversion Rates, sec-alcohol to methyl ketone",[2],7.4 μmoles/hr/mg protein
same,"Conversion Rates, sec-alcohol to methyl ketone","[3]; methanol-grown, obligate",0.28 μmoles/hr/mg protein
same,"Conversion Rates, sec-alcohol to methyl ketone",[3]; methyl formate-grown,0.62 μmoles/hr/mg protein
same,"Conversion Rates, sec-alcohol to methyl ketone",[3]; methylamine-grown,0.82 μmoles/hr/mg protein
same,"Conversion Rates, sec-alcohol to methyl ketone","[4]; methanol-grown, facultative",0.45 μmoles/hr/mg protein
same,"Conversion Rates, sec-alcohol to methyl ketone",[4]; methyl formate-grown,0.52 μmoles/hr/mg protein
same,"Conversion Rates, sec-alcohol to methyl ketone",[4]; methylamine-grown,1.0 μmoles/hr/mg protein
same,"Conversion Rate, sec-alcohol to ketone",[5]; growth substrate Ethanol,5.2 μmoles/hr/mg of protein
same,"Conversion Rate, sec-alcohol to ketone",[5]; growth substrate Methanol,6.2 μmoles/hr/mg of protein
same,"Conversion Rate, sec-alcohol to ketone",[5]; growth substrate Methylamine,5.0 μmoles/hr/mg of protein
same,"Conversion Rate, sec-alcohol to ketone",[5]; growth substrate Methylformate,5.6 μmoles/hr/mg of protein
same,"Conversion Rate, sec-alcohol to ketone",[5]; growth substrate Propylamine,4.2 μmoles/hr/mg of protein
same,"Conversion Rate, sec-alcohol to ketone",[6]; growth substrate Ethanol,4.5 μmoles/hr/mg of protein
same,"Conversion Rate, sec-alcohol to ketone",[6]; growth substrate Methanol,5.2 μmoles/hr/mg of protein
same,"Conversion Rate, sec-alcohol to ketone",[6]; growth substrate Methylamine,4.2 μmoles/hr/mg of protein
same,"Conversion Rate, sec-alcohol to ketone",[6]; growth substrate Methylformate,4.9 μmoles/hr/mg of protein
same,"Conversion Rate, sec-alcohol to ketone",[6]; growth substrate Propylamine,3.2 μmoles/hr/mg of protein
same,"Conversion Rate, sec-alcohol to ketone",[7]; growth substrate Ethanol,4.5 μmoles/hr/mg of protein
same,"Conversion Rate, sec-alcohol to ketone",[7]; growth substrate Methanol,4.8 μmoles/hr/mg of protein
same,"Conversion Rate, sec-alcohol to ketone",[7]; growth substrate Methylamine,4.0 μmoles/hr/mg of protein
same,"Conversion Rate, sec-alcohol to ketone",[7]; growth substrate Methylformate,4.9 μmoles/hr/mg of protein
same,"Conversion Rate, sec-alcohol to ketone",[7]; growth substrate Propylamine,4.0 μmoles/hr/mg of protein
same,"Oxidation Rate, sec-alcohol to methyl ketone",[8],2.1 nmole/min/mg protein
same,"Oxidation Rate, sec-alcohol to methyl ketone",[9],1.7 nmole/min/mg protein
same,"Oxidation Rate, sec-alcohol to methyl ketone",[10],2.0 nmole/min/mg protein
same,"Oxidation Rate, sec-alcohol to methyl ketone",[11],21.2 nmole/min/mg protein
same,"Conversion Rate, secondary alcohol to methylketone",[12],4.8 μmoles/hr/mg Protein
same,"Conversion Rate, secondary alcohol to methylketone",[13],4.5 μmoles/hr/mg Protein
same,substrate specificity of purified yeast secondary alcohol dehydrogenase (in words),[14],catalyzed the oxidation
